Experimental data from ChEMBL document CHEMBL1137798, “Evaluation of natural products as inhibitors of human immunodeficiency virus type 1 (HIV-1) reverse transcriptase” (J Nat Prod, 1991).
Where a name gives a salt, the structure may show the parent alone.

biological target: Human immunodeficiency virus type 1 reverse transcriptase (Human immunodeficiency virus 1, UniProt Q72547); conditions: not given

Row | Compound | IC50
1 | RAUWOLFIA SERPENTINA | > 200 µg/mL

same assay, conditions: read-out: IC50 (converted)

Row | Compound | IC50
2 | CC(=O)O[C@@H]1[C@H]2[C@H]3C[C@H]4C5=Nc6ccccc6[C@]51C[C@@H]2N4[C@H](C)C3C=O (stereo partly drawn) [PERAKINE] | > 571 µM
3 | COc1cc2c(c3c1/c(=N\N=c1/c4ccccc4n(C)c4c5c(cc(OC)c14)OC(C)(C)C=C5)c1ccccc1n3C)C=CC(C)(C)O2 [ACRONYCINE AZINE] | > 313 µM
4 | C/C=C1/CN[C@H]2Cc3c([nH]c4ccccc34)C(=O)C[C@@H]1[C@@H]2C(=O)OC [PERIVINE] | > 591 µM
5 | COC(=O)C[C@](O)(CCCC(C)(C)O)C(=O)O[C@@H]1C(OC)=C[C@]23CCCN2CCc2cc4c(cc2[C@H]13)OCO4 [OMACETAXINE MEPESUCCINATE] | > 367 µM
6 | C[C@H]1C(=O)O[C@@H]2CCN3CC=C(COC(=O)[C@](C)(O)[C@]1(C)O)[C@H]23 [MONOCROTALINE] | > 615 µM
7 | C=C1C[C@@]23CC[C@H]4[C@@](C)(CCC[C@@]4(C)C(=O)O[C@@H]4O[C@H](CO)[C@@H](O)[C@H](O)[C@H]4O)[C@@H]2CC[C@]1(O[C@@H]1O[C@H](CO)[C@@H](O)[C@H](O)[C@H]1O[C@@H]1O[C@H](CO)[C@@H](O)[C@H](O)[C@H]1O)C3 [STEVIOSIDE] | > 248 µM
8 | CC(C)[C@](O)(C(=O)OCC1=CC[N+]2([O-])CC[C@@H](O)[C@@H]12)[C@H](C)O (stereo partly drawn) [INDICINE N-OXIDE] | > 634 µM
9 | COc1cc2c(cc1OC)N1C(=O)C[C@]34C=CCN5CC[C@@H]2[C@@H](CC3)C514 | > 567 µM
10 | COc1ccc2cc3[n+](cc2c1OC)CCc1cc2c(cc1-3)OCO2 [BERBERINE CHLORIDE] | 269 µM
11 | COC(=O)C1=CO[C@H](C)[C@@H]2CN3CCc4c([nH]c5cc(OC)ccc45)[C@@H]3C[C@H]12 [RAUNITIDINE] | > 523 µM
12 | C=C(C)[C@@H]1CC[C@]2(CO)CC[C@]3(C)[C@H](CC[C@@H]4[C@@]5(C)CC[C@H](O)C(C)(C)[C@@H]5CC[C@]43C)[C@@H]12 [BETULIN] | > 452 µM
13 | COc1cc2c(c3c1c(=O)c1ccccc1n3C)CCC(C)(C)O2 [DIHYDROACRONYCINE] | > 618 µM
14 | COc1c2occc2c(OC)c2c(=O)cc(C)oc12 [KHELLIN] | > 769 µM
15 | C=C(C)[C@H]1Cc2c(ccc3c2O[C@@H]2COc4cc(OC)c(OC)cc4[C@@H]2C3=O)O1 [ROTENONE] | > 507 µM
16 | CC[C@@]12CCCN3CC[C@]4(c5cccc(OC)c5N(C(C)=O)[C@@H]4CC1)[C@H]32 [ASPIDOSPERMINE] | > 564 µM
17 | C1CCN2C[C@@H]3C[C@@H](CN4CCCC[C@@H]34)[C@H]2C1 [SPARTEINE] | > 853 µM
18 | COc1c(O)cc(O)c2c(=O)c(O)c(-c3ccccc3)oc12 | > 734 µM
19 | COC(=O)C1=CCCN(C)C1 [ARECOLINE HYDROBROMIDE] | > 847 µM
20 | C[C@H](O)C1=C[C@@]2(C=C[C@@H]3C(C(=O)O)=CO[C@@H](O[C@@H]4O[C@H](CO)[C@@H](O)[C@H](O)[C@H]4O)[C@@H]32)OC1=O | > 438 µM
21 | CC[C@@]12CCCN3CC[C@@]4(C(=Nc5c(OC)cccc54)CC1)[C@H]32 | > 644 µM
22 | COc1ccc(Cc2nccc3cc(OC)c(OC)cc23)cc1OC [PAPAVERINE] | < 589 µM

Row | Compound | IC50
23 | COc1cc2c(cc1OC)[C@@]13CCN4CC5=CCO[C@H]6CC(=O)N2[C@H]1[C@H]6[C@H]5C[C@H]43 [BRUCINE] | > 507 µM
24 | COc1c2occc2c(CC(O)C(C)(C)O)c2ccc(=O)oc12 (stereo not drawn) | > 628 µM
25 | CN1[C@@H]2C[C@@H](OC(=O)[C@H](CO)c3ccccc3)C[C@H]1[C@@H]1O[C@@H]12 [SCOPOLAMINE HYDROBROMIDE] | > 456 µM
26 | C=C1C[C@@]23CC[C@H]4[C@@](C)(CCC[C@@]4(C)C(=O)O)[C@@H]2CC[C@]1(O)C3 [STEVIOL] | > 628 µM
27 | COc1c2ccoc2nc2c(OC(C)=O)cccc12 [ACETYLROBUSRINE] | > 777 µM
28 | C[C@@H]1O[C@@H](O[C@H]2C[C@@H](O)[C@]3(CO)[C@H]4[C@H](O)C[C@]5(C)[C@@H](C6=CC(=O)OC6)CC[C@]5(O)[C@@H]4CC[C@]3(O)C2)[C@H](O)[C@H](O)[C@H]1O [OUABAIN] | > 342 µM
29 | COc1c([N+](=O)[O-])c2c(c3c1c(=O)c1ccccc1n3C)C=CC(C)(C)O2 [NITROACRONYCINE] | > 546 µM
30 | O=C(OC[C@H]1O[C@@H](OC(=O)c2cc(O)c(O)c(OC(=O)c3cc(O)c(O)c(O)c3)c2)[C@H](OC(=O)c2cc(O)c(O)c(OC(=O)c3cc(O)c(O)c(O)c3)c2)[C@@H](OC(=O)c2cc(O)c(O)c(OC(=O)c3cc(O)c(O)c(O)c3)c2)[C@@H]1OC(=O)c1cc(O)c(O)c(OC(=O)c2cc(O)c(O)c(O)c2)c1)c1cc(O)c(O)c(OC(=O)c2cc(O)c(O)c(O)c2)c1 [TANNIC ACID] | < 29.4 µM
31 | COc1cc(C[C@H]2c3cc(OC)c(OC)cc3CCN2C)c(Oc2cc3c(cc2OC)-c2c(OC)c(OC)cc4c2[C@H](C3)N(C)CC4)cc1OC [THALICARPINE] | > 287 µM
32 | C/C=C(/C)C(=O)O[C@H]1CC[C@@]2(C)[C@@H]3CC[C@H]4[C@]5(O)C[C@H](O)[C@@]6(O)[C@@H](CN7C[C@@H](C)CC[C@H]7[C@@]6(C)O)[C@]5(O)C[C@]42O[C@]13O [VERATRINE] | > 338 µM
33 | CC[C@@H]1CN2CCc3c([nH]c4ccccc34)[C@@H]2C[C@@H]1/C(=C\OC)C(=O)OC [CORYNANRHEIDINE] | > 543 µM
34 | COc1ccc2[nH]c3c(C)c4ccncc4c(C)c3c2c1 | < 543 µM
35 | CC1=C(O)C(=O)C=C2C1=CC=C1[C@@]2(C)CC[C@@]2(C)[C@@H]3C[C@@H](C)C(=O)[C@@H](O)[C@]3(C)CC[C@]12C [TINGENIN B] | > 458 µM
36 | COc1ccc2c(c1OC)C(=O)O[C@@H]2[C@H]1c2cc3c(cc2CCN1C)OCO3 [HYDRASTINE] | > 522 µM
37 | COc1cc2c(OC)c3ccoc3nc2cc1O | > 816 µM
38 | COc1c2c(c(O)c3ccoc13)C(=O)[C@H]1c3cc4c(cc3OC[C@H]1O2)OCO4 | > 523 µM
39 | CC[C@]12CCc3[nH]c4ccccc4c3CCN(C[C@H]3O[C@H]31)C2 [CONOFLORINE] | > 675 µM
40 | CCC1=C[C@@H]2CN3CCc4c([nH]c5ccccc45)[C@](C(=O)OC)(C2)[C@@H]13 [CATHARANTHINE HYDROCHLORIDE] | > 536 µM
41 | C/C=C1/CN(C(C)=O)[C@H]2Cc3c([nH]c4ccccc34)C(=O)C[C@@H]1[C@@H]2C(=O)OC | > 526 µM
42 | CC[C@H](/C=C/[C@@H](C)[C@H]1CC[C@H]2[C@@H]3CC=C4C[C@@H](O)CC[C@]4(C)[C@H]3CC[C@]12C)C(C)C [STIGMASTEROL] | > 485 µM
43 | COC(=O)C1=CO[C@@H](C)[C@@H]2CN3CCc4c([nH]c5ccc(OC)cc45)[C@@H]3C[C@H]12 [ARICINE] | > 523 µM

Row | Compound | IC50
44 | C[n+]1cccc(C(=O)[O-])c1 [TRIGONELLINE HYDROCHLORIDE] | > 1150 µM
45 | COc1cc2c(cc1O)C[C@H]1c3c(cc(O)c(OC)c3-2)CCN1C [BOLDINE] | > 611 µM
46 | COc1ccc2c(c1OC)-c1cc(ccc1O)/C=C\C(=O)O[C@H]1C[C@@H]3CCCCN3[C@H]2C1 | > 460 µM
47 | C=C1c2cc3[nH]ccc3cc2CN2CC[C@@H]1/C(=C\C)C2 [PERICALLINE] | > 757 µM
48 | C=C(C)[C@@H]1[C@H]2OC(=O)[C@@H]1[C@]1(O)C[C@H]3OC34C(=O)O[C@H]2[C@@]41C.CC(C)(O)[C@@H]1[C@H]2OC(=O)[C@@H]1[C@]1(O)C[C@H]3OC34C(=O)O[C@H]2[C@@]41C (stereo partly drawn) [PICROTOXIN] | > 332 µM
49 | COc1ccc2c(c[n+](C)c3c4cc5c(cc4ccc23)OCO5)c1OC [CHELERYTHRINE CHLORIDE] | < 521 µM
50 | COc1ccc(C(=O)Cc2c(CCN(C)C)cc3c(c2OC)OCO3)c(C(=O)O)c1OC [NARCEINE] | > 449 µM
51 | C1CCN2C[C@]34C[C@H](C[C@@H]5CCCN([C@@H]6CCC[C@@H]3N6)[C@H]54)[C@H]2C1 [PANAMINE] | > 634 µM
52 | COc1cccc2c1C(=O)c1c(O)c3c(c(O)c1C2=O)C[C@@](O)(C(C)=O)C[C@@H]3O[C@H]1C[C@H](N)[C@H](O)[C@H](C)O1 [DAUNORUBICIN] | 237 µM
53 | COC(=O)C1=CO[C@@H](O[C@@H]2O[C@H](CO)[C@@H](O)[C@H](O)[C@H]2O)[C@H]2[C@@H]1C=C[C@@]21C=C([C@H](C)O)C(=O)O1 [PLUMIERIDE] | > 425 µM
54 | COC(=O)C1=CO[C@@H](C)[C@@H]2Cn3ccc4c5ccccc5nc-4c3C[C@H]12 [ALSTONINE HYDROCHLORIDE] | < 390 µM
55 | COc1cc2c3cc1Oc1cc(ccc1O)C[C@@H]1c4c(cc(OC)c(O)c4Oc4ccc(cc4)C[C@@H]3N(C)CC2)CC[N+]1(C)C | > 310 µM
56 | CN[C@@H](C)[C@H](O)c1ccccc1 [EPHEDRINE SULFATE] | > 933 µM
57 | CC[C@]12CN3CCc4c([nH]c5ccccc45)[C@@](C(=O)OC)(c4cc5c(cc4OC)N(C)[C@H]4[C@@](O)(C(=O)OC)[C@H](OC(C)=O)[C@]6(CC)C=CCN7CC[C@]54[C@@H]76)C[C@@H](C3)[C@H]1O2 [VINLEUROSINE SULFATE] | > 233 µM
58 | COc1cc2c(c3c1c(=O)c1ccccc1n3C)C=CC(C)(C)O2 [ACRONINE] | > 622 µM
59 | C1CN[C@@H]2[C@@H](C1)[C@@H]1CC2([C@H]2CCC[C@H](C3CC[C@@H]4N[C@H]3N3CCC[C@H]5C[C@@H]6C[C@]4(CN4CCCC[C@H]64)[C@@H]53)N2)CN2CCCC[C@H]12 (stereo partly drawn) [ORMOSININE] | > 324 µM
60 | CC(=O)N[C@H]1[C@@H](O[C@H]2[C@H](O)[C@@H](O)[C@H](O[C@H]3[C@H](CS(=O)(=O)O)[C@@H](OS(=O)(=O)O)[C@@H](O[C@H]4[C@H](O)[C@@H](OS(=O)(=O)O)C(O)O[C@H]4C(=O)O)O[C@@H]3O)O[C@@H]2C(=O)O)O[C@H](COS(=O)(=O)O)[C@@H](O)[C@@H]1O (stereo partly drawn) [SODIUM HEPARIN] | > 192 µM
61 | CC[C@H]1CN2CCc3cc(OC)c(OC)cc3[C@@H]2C[C@@H]1C[C@H]1NCCc2c1[nH]c1ccc(O)cc21 [TUBULOSINE] | > 420 µM
62 | COc1cc2cc(c1Cl)N(C)C(=O)C[C@H](OC(=O)[C@H](C)N(C)C(C)=O)[C@]1(C)O[C@H]1[C@H](C)[C@@H]1C[C@@](O)(NC(=O)O1)[C@H](OC)/C=C/C=C(\C)C2 [MAYTANSINE] | > 289 µM
63 | CC1=C(C)C(=O)O[C@@H]([C@](C)(O)[C@]2(O)CC[C@@]3(O)[C@@H]4C[C@H]5O[C@]56[C@@H](O)C=CC(=O)[C@]6(C)[C@H]4CC[C@]23C)C1 | > 398 µM
